Experimental findings from patent US20220218757A1, “THERAPEUTICALLY ACTIVE CELLS AND EXOSOMES” (Cedars-Sinai Medical Center, priority 2019, published 2022) are described below.

Series [1] deals with β-catenin. Kind of series: Total β-catenin ELISA of cells. The class given is cell-based, Human. The note with it: for duration / decay of effect on β-catenin after GSK3β inhibition: CDCs, BIO (reversible) vs tideglusib (irreversible). The procedure: (§1) Cell lysates were collected for ELISA and western blot. For ELISA, 4×10^5 cells were collected and pelleted at 1,000 rpm for 5 min at 4° C. Cell pellets were lysed in 1× lysis buffer (Affymetrix eBioscience InstantOne ELISA kit) and incubated for 10 min at room temperature with regular agitation. For western blot, cells were pelleted and resuspended in 1× RIPA buffer (Alfa Aesar) with protease inhibitor on ice for 30 min. Protein lysates were isolated by centrifugation at 14,000 rpm for 15 min at 4° C. Protein concentration was measured using a DC™ Protein Assay kit (Bio-Rad).
(§2) Cells were exposed to 5 μM of 6-bromoindirubin-3′-oxime (BIO, Sigma-Aldrich) or 4-Benzyl-2-(naphthalene-1-yl)-[1,2,4]thiadiazolidine-3,5-dione (Tideglusib, Sigma-Aldrich) for 48 or 72 hours in complete media.
Total β-catenin ELISA was performed according the protocol described with a final sample concentration of 0.01 mg/ml and positive control of 0.1 mg/ml (Affymetrix eBioscience InstantOne™ ELISA).
(In general: An ELISA detects its analyte on a solid surface through an enzyme-linked reagent.)

In series [2] the test system is CDCs. Put plainly: Flow cytometry of CD90, CD105, DDR2 and LRP5/6. The class given is cell-based, Human. The protocol: as §2
Cells were harvested and counted (2×10^5 cells per condition). Cells were washed with 1% bovine serum albumin (BSA) in 1× phosphate-buffered saline (PBS) and stained with the appropriate antibody (BD Pharmingen) for 1 hr at 4° C. Cells were then washed again and resuspended in 1% BSA in 1×PBS. BD Cytofix/Cytoperm™ kit was used for cell permeabilization before staining. Flow analysis was done using a BD FACS Canto™ II instrument.
(In general: Flow cytometry measures light scatter and fluorescence of single cells or particles in a stream.)

Series [3] deals with CDCs. Kind of series: RNA sequencing and qPCR of BIO-exposed versus vehicle-exposed CDCs (LP, LPL, imCDC). Format: cell-based, Human. The protocol:
Cell RNA was isolated using a miRNeasy Mini Kit (Qiagen). Exosome RNA was isolated using the Urine Exosome RNA Isolation Kit (Norgen Biotek Corp.). Reverse transcription was performed using High Capacity RNA to cDNA (Thermo Fisher Scientific) or TaqMan® microRNA Reverse Transcription Kit (Applied Biosystems) for RNA and micro RNA, respectively. Real-time PCR was performed using TaqMan Fast Advanced Master Mix and the appropriate TaqMan® Gene Expression Assay (Thermo Fisher Scientific). Samples were processed and analyzed using a QuantStudio™ 12K Flex Real-Time PCR system and each reaction was performed in triplicate samples (with housekeeping genes hprt1 for mRNA and miR23a for microRNA). The gene expression assays/microRNAs used in this study were as follows (Thermo Fisher Scientific):
Cell and exosome RNA samples were sequenced at the Cedars Sinai Genomics Core. Total RNA and Small RNA were analyzed using an Illumina NextSeq 500 platform for cell and exosome samples respectively.
as §2
To understand how β-catenin drives potency, the transcriptomes of LP CDCs to those of the same cell batches after exposure to BIO were compared. As stated above, three scenarios associated with low potency were identified: donor-related, in which all lots from a given donor lack potency; lot-dependent, in which some lots are potent and others are not; and immortalized CDCs (imCDCs). Using RNA sequencing, LP cells from each scenario were compared after exposure to BIO versus vehicle alone. […] Differential expression of microRNAs (miRs) between the two groups further identified a cognate miR coregulated with mest (miR-335; FIG. 3C, FIGS. 9D and 9E). […] Mest modulates Wnt/β-catenin signaling indirectly through glucosyltransferases that prevent LRP5/6 receptor maturation. […]
In general terms: In qPCR the cycle at which signal appears reflects the starting amount.

The test system of series [4] is EXTL1. Put plainly: Western blot of EXTL1 protein. Format: cell-based, Human. As to conditions: CDC (LP) exposure to BIO. The procedure: as §1
Series [5] has as its system SCID/beige mice with acute myocardial infarction. Kind of series: Mouse acute MI model (echocardiography, Masson's trichrome histology, mortality). The note with it: for myocardial function in mice with MI, drugs given independent of CDCs: relative to controls. Format: in vivo. The protocol:
Acute myocardial infarction was induced in three-month-old male severe combined immunodeficient (SCID)/beige mice (n=5-7 animals per group). Within 10 min of coronary ligation, 1×10^5 cells, EVs, drugs (or vehicle) were injected intramyocardially.
Echocardiography. Echocardiography study was performed in the SCID/beige at 24 hr (baseline) and three weeks after surgery using Vevo 3100 or 770 Imaging System (Visual Sonics) as described. The average of the left ventricular ejection fraction was analyzed from multiple left ventricular end-diastolic and left ventricular end-systolic measurements.
Animals were sacrificed 3 weeks after MI induction. Hearts were harvested and a transverse cut was made slightly above the MI suture. The apical portion was then embedded in optimum cutting temperature solution in a base mold/embedding ring block (Tissue Tek). Blocks were immediately frozen by submersion in cold 2-methylbutane. Hearts were sectioned at a thickness of 5 μm.
Two slides containing a total of four sections per heart were stained using Masson's trichrome stain. In brief, sections were treated overnight in Bouin's solution. Slides were then rinsed for 10 min under running water and stained with Weigert's hematoxylin for 5 min. Slides were then rinsed and stained with scarlet-acid fuchsin for 5 min and rinsed again. Slides were then stained with phosphotungstic/phosphomolybdic, aniline blue, and 2% acetic acid for 5 min each. Slides were then rinsed, dried, and mounted using DPX mounting media.

Series [6] has as its system immortalized CDCs. Format: cell-based, Human. The protocol: as §2
For series [7], the system named is CDC EVs. Put plainly: qPCR of miRs in EVs from BIO-exposed versus vehicle-exposed CDCs. The class given is cell-based, Human. As to conditions: EVs of LP, LPL, imCDC exposed to BIO vs vehicle. The procedure:
Extracellular Vesicles were harvested from primary CDCs at passage 5 or older passages from transduced cells using a hypoxic cycling method used previously. Briefly, cells were grown to confluence at 20% O2/5% CO2 at 37° C., and then cells were serum-free at 2% O2/5% CO2 at 37° C. overnight after one wash. Conditioned media was collected and filtered through 0.45 μm filter to remove apoptotic bodies and cellular debris and frozen for later use at −80° C. EVs were purified using centrifugal ultrafiltration with a 1000 KDa molecular weight cutoff filter (Sartorius). EV preparations were analyzed through Malvern Nanosight NS300 Instrument (Malvern Instruments) with the following acquisition parameters: camera levels of 15, detection level less than or equal to 5, number of videos taken 4, and video length of 30 s.
Cell RNA was isolated using a miRNeasy Mini Kit (Qiagen). Exosome RNA was isolated using the Urine Exosome RNA Isolation Kit (Norgen Biotek Corp.). Reverse transcription was performed using High Capacity RNA to cDNA (Thermo Fisher Scientific) or TaqMan® microRNA Reverse Transcription Kit (Applied Biosystems) for RNA and micro RNA, respectively. […] Samples were processed and analyzed using a QuantStudio™ 12K Flex Real-Time PCR system and each reaction was performed in triplicate samples (with housekeeping genes hprt1 for mRNA and miR23a for microRNA). […]

Regarding `O=C1Nc2cc(Br)ccc2/C1=C1/Nc2ccccc2/C1=N\O` [BIO, 6-bromoindirubin-3′-oxime], in series [1] (CDCs exposed to increasing concentrations of BIO), the “concentration at which BIO is maximally effective in CDCs (β-catenin ELISA)” value was 5 µM. In addition, in series [1], the “duration / decay of effect on β-catenin after GSK3β inhibition” value was “more rapid decay of effect”. In addition, in series [1] (LP CDC line exposed to 5 μM BIO vs vehicle), the β-catenin levels result is “increase β-catenin levels”. Further, in series [2] (BIO-exposed LP cells), the “expression of CD90” value is on record as “decreased the expression of CD90”, the “expression of CD105” value is “without affecting” and the “expression of DDR2” value is given as “without affecting”. Further, the “LRP5/6 level (flow cytometry)” value in series [2] (LP CDCs exposed to BIO) is given as “upregulated its glycosylation target LRP5/6 (although that difference was not statistically significant”. For the same compound, in series [3] (BIO vs vehicle, LP, LPL and imCDC), the “miR-335 expression in cells” value is “downregulated”. The downregulation of mest in series [3] (BIO vs vehicle, fold changes pooled over LP, LPL and imCDC) was about 30 fold. In addition, in series [3] (BIO-exposed LP, LPL and imCDCs, qPCR), the LRP5/6 transcripts entry is “unchanged”. In addition, the EXTL1 protein levels entry in series [4] is given as “decreased EXTL1 protein levels”. In series [5] (imCDC pre-exposed to BIO, then injected), the “potency of immortalized CDCs after exposure to BIO” value is recorded as “restored potency”. In addition, the “myocardial function in mice with MI, drugs given independent of CDCs” value in series [5] is reported as “Neither BIO nor the canonical Wnt inhibitor JW67 significantly altered myocardial function”. The “cell growth and viability” value in series [6] was “cell growth and viability were undermined”. In addition, the “EV levels of miR-335” value in series [7] is listed as “decreased significantly”.

As for `O=C1Nc2ccccc2C12OCC1(CO2)COC2(OC1)C(=O)Nc1ccccc12` (centres unmarked) [JW67], in series [5], the “myocardial function in mice with MI, drugs given independent of CDCs” value was “Neither BIO nor the canonical Wnt inhibitor JW67 significantly altered myocardial function”.

With `O=c1sn(-c2cccc3ccccc23)c(=O)n1Cc1ccccc1` [Tideglusib, 4-Benzyl-2-(naphthalene-1-yl)-[1,2,4]thiadiazolidine-3,5-dione], the “duration / decay of effect on β-catenin after GSK3β inhibition” value in series [1] is listed as “directionally similar but longer-lasting effects”.
